Usually thermodynamic solubility stands for the concentration in solution at equilibrium with solid. In general, microsomal CLint refers to the rate of metabolic loss divided by the concentration. Lower therefore signals slow turnover. One may read the MIC as the smallest concentration in the dilution series that meets the test's criterion for growth inhibition.

In brackets after ≈: the same amount, converted by molar mass. Where two headings read alike, the source gives them in different places. Where only a bound is given, the exact number is not on record here.

The values below come from PMC11009625, “Antibiotic class with potent in vivo activity targeting lipopolysaccharide synthesis in Gram-negative bacteria” (Proceedings of the National Academy of Sciences of the …, 2024).

One series can be described thus: Thermodynamic solubility. The settings on record: 37 °C, aqueous buffer, thermodynamic from solid; 100 mM KPO4-buffer, pH 7.4. The format is physicochemical. Here is the method:
(§1) Thermodynamic solubility was assessed by dissolving 2 to 3 mg of test compound to equilibrium in 100 mM KPO4-buffer, pH 7.4. The metabolic stability assay was performed in the presence of human and mouse liver microsomes by measurement of test compounds disappearance over time (60 min). The plasma protein binding assay, including stability estimation, was performed using the RED devices (Thermo Fisher Scientific) in the presence of human and mouse plasma. All samples from the in vitro ADME studies were quantified by liquid chromatography-triple quadrupole mass spectrometry (LC–MS/MS). The assays were performed as previously described ([36]) and the details are available in SI Appendix. Cytotoxicity was assessed by incubation of test compounds in the presence of HepG2 cells for 72 h as previously described ([37]). […]
(§2) The plate is then sealed, centrifuged and the supernatant is analysed by liquid
chromatography coupled to triple quadrupole mass spectrometry (LC-MS/MS). […]
Thermodynamic solubility. Thermodynamic solubility assay utilized solid form of a test
compound. Solid test compound (~2-3 mg) was weighed in a glass HPLC vial and 100 mM KPO4-
buffer, pH 7.4 was added to give a theoretical max concentration if everything is dissolved of ~5-
6 mg/ml. The vial was incubated at 900 rpm, 37 °C in a rotational shaker for 24h. After the
incubation an aliquot (200 µl) was transferred to a glass insert and centrifuged at 10 000xg, 37 °C
for 20 min to separate any solid material from the solution. The supernatant was transferred to
a new HPLC vial and analysed by liquid chromatography coupled to triple quadrupole mass
(§3) Liquid chromatography coupled to triple quadrupole mass spectrometry (LC-MS/MS). The test
(§4) compounds were optimized on a Waters Acquity UPLC XEVO TQ-S micro system (Waters Corp.)
(§5) operating in multiple reaction monitoring (MRM) mode with positive or negative electrospray
(§6) ionization. Compounds were optimized by using the QuanOptimize software (Waters Corp.).
(§7) For chromatographic separation, a C18 BEH 1.7 µm column was used, with a general gradient of
(§8) 1% to 90% of mobile phase B over a total running time of 2 min. Mobile phase A consisted of
(§9) 5% acetonitrile and 0.1% formic acid in purified water, and mobile phase B of 0.1% formic acid
(§10) in 100% acetonitrile. The flow rate was set to 0.5 ml/min and 5 µL of the sample was injected.

Series [1] can be described thus: Metabolic stability in human liver microsomes. Type of series: in vitro ADME. The settings on record: pH 7.4. On the procedure: as §1, §2
(§11) chromatography coupled to triple quadrupole mass spectrometry (LC-MS/MS).
(§12) Metabolic stability in the presence of human and animal liver microsomes. Metabolic stability
(§13) was determined in 0.5 mg/ml human or animal liver microsomes at a compound concentration
(§14) of 1 μM in 100 mM KPO4 buffer pH 7.4 in a total incubation volume of 500 μl. The reaction was
(§15) initiated by addition of 1 mM NADPH. At various incubation times, i.e. at 0, 5, 10, 20, 40 and 60
(§16) min, a sample was withdrawn from the incubation and the reaction was terminated by addition
(§17) of cold acetonitrile with warfarin as an internal standard. […]
as §3, §4, §5, §6, §7, §8, §9, §10

Series [2] is described as follows: Metabolic stability in mouse liver microsomes. Type of series: in vitro ADME. Conditions: pH 7.4. Here is the method: as §1, §2, §11, §12, §13, §14, §15, §16, §17, §3, §4, §5, §6, §7, §8, §9, §10
In series [3] the test system is Staphylococcus aureus ATCC 29213. Briefly: MIC, S. aureus. Type of series: cell-based. Here is the method:
Minimum inhibitory concentration (MIC) values were determined according to the Clinical Laboratory Standards Institute guidelines. Frequency of resistance was determined by plating ~5 × 10^8 bacterial cells on agar-solidified media plates containing test compound at concentrations corresponding to four times the measured solid-media MIC of the strains. Colonies were counted after 24 h, restreaked onto media containing the same concentration of compound, and the MIC remeasured against the assayed compound. Genomic DNA from isolated clones was sequenced by paired-end sequencing on an Illumina MiSeq device. Complete experimental details available in SI Appendix.
Cytotoxicity. The cytotoxicity assay was performed in HepG2 cells as previously described(10) […]
Minimum inhibitory concentration (MIC) determination. Broth microdilution and agar dilution MIC assays were conducted according to CLSI guidelines (M07-2012). Appropriate inoculation suspension density was assessed using a Sensititre Nephelometer with a Sensititre 0.5 McFarland Standard. Serum MICs were conducted in 50% heat-inactivated pooled human serum (Sigma-Aldrich). Serum was heated to 56 °C for one hour and then filtered using a 0.2 µm […]
Hemolysis. Hemolysis was conducted as previously described (11).
Frequency of Resistance. Frequency of resistance was assessed by spread plating between […] cfu of a freshly-grown culture of the strain of interest on plates containing a concentration of compound corresponding to 4 times the MIC of the strain (as determined by agar-dilution MIC). […] The frequency of resistance was determined by dividing the number of colonies obtained on the selective plates after 24 hours of growth by the calculated total population plated. […]
Whole-genome sequencing and data analysis. […] Whole-genome sequencing data was analyzed using CLC Genomics Workbench Version 11. To determine the genotype of MDR strains from the ENABLE strain collection, de novo assembled contigs were analyzed using ResFinder (12–14) […]

The mark [4] stands for this setting: ATCC29213, read-out: MIC S. aureus ATCC 29213.

As to `CN(c1ccc(CNCCN)cc1C(=O)Nc1ccc(S(=O)(=O)N2CCN(c3cc(Cl)cc(Cl)c3)CC2)cc1)S(C)(=O)=O` [EBL-3025], the thermodynamic solubility at 24 h in the series “Thermodynamic solubility” amounted to 4 µM (≈ 2.68 µg/mL). The microsomal CLint at 1 µM in series [1] turned out to be 42.2 µL/min/mg; in series [2] it was 31 µL/min/mg.
The corresponding values for `Cc1cc(C#N)nc(N2CCN(S(=O)(=O)c3ccc(NC(=O)c4ccccc4N(C)S(C)(=O)=O)cc3)CC2)n1` [EBL-3339] are 1.2 µM (≈ 0.684 µg/mL), 551 µL/min/mg and 625 µL/min/mg.
`Cc1cc(C#N)nc(N2CCN(S(=O)(=O)c3ccc(NC(=O)c4cc(CNCCCN)ccc4N(C)S(C)(=O)=O)cc3)CC2)n1.Cl.Cl` [EBL-3599] yielded a solubility (thermodynamic) at 24 h in the series “Thermodynamic solubility” of 1530 µM. For the same compound, the MIC in series [3] (ATCC29213, WT, read-out: MIC S. aureus ATCC 29213) was above 64 µg/mL. The microsomal CLint at 1 µM in series [1] and in series [2] was below 5 µL/min/mg in each case.
Compound `Cc1cc(C#N)nc(N2CCN(S(=O)(=O)c3ccc(NC(=O)c4cc(CN5CC(CN)C5)ccc4N(C)S(C)(=O)=O)cc3)CC2)n1` [EBL-3647] registered a thermodynamic solubility at 24 h in “Thermodynamic solubility” of 1090 µM (≈ 728 µg/mL). In series [3] (setting [4]), the MIC is above 64 µg/mL. The intrinsic clearance (microsomal CLint) at 1 µM was 3.1 µL/min/mg in series [1] and below 5 µL/min/mg in series [2].
The corresponding values for `CN(c1ccccc1C(=O)Nc1ccc(S(=O)(=O)N2CCN(c3cccc(C(F)(F)F)c3)CC2)cc1)S(C)(=O)=O` [JEDI-1444] are 0.21 µM (≈ 0.125 µg/mL), above 64 µg/mL, 209 µL/min/mg and 126 µL/min/mg.
